Laboratory results published in BindingDB's records for doi:10.1021/jm0506625 (Washington University, 2005).
pIC50, pKi: −log10 of the molar value. Where a SMILES comes first, the peptide text is derived from it. [ ]: non-standard residue; d: D form. ξ: configuration not given here. Ile(3ξ) = CCC(C)[C@H](N)C(=O)O; Thr(3ξ) = CC(O)[C@H](N)C(=O)O

How the values were obtained:
Caspase-3 = target: T1, Caspase-3 (Homo sapiens, UniProt P42574); test: Caspase Inhibition Assay
T1 sequence (P42574 whole entry): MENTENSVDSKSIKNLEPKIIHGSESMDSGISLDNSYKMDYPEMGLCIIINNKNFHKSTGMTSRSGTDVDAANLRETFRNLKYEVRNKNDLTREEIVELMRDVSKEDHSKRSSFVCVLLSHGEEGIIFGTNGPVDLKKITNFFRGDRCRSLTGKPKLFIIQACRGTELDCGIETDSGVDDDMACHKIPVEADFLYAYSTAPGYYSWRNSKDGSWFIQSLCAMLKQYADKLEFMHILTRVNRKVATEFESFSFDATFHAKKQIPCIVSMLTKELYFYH
Procedure: (§1) The substrate peptides terminating in AMC are processed by caspases with or without inhibitors. […] Compounds were tested in duplicate, and IC50 curves were calculated for all inhibitors. Final IC50s were the average of three independent experiments.

Caspase-8 = Caspase-8 (Homo sapiens, UniProt Q14790); test: Caspase Inhibition Assay
Procedure: as §1

Caspase-8, sequence (Q14790 217-374 limits assumed): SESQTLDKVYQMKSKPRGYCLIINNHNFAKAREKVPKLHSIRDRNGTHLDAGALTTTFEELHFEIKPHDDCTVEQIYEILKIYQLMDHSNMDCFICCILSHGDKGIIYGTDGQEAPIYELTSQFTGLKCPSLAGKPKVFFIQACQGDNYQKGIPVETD
Caspase-8, sequence (Q14790 385-479 limits assumed): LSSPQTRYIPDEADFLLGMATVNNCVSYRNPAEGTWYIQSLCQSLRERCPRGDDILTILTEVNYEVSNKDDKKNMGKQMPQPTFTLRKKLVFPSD

pKi (Caspase-3) | pIC50 (Caspase-8) | SMILES
8.36 | – | COc1ccc(CN2C(=O)C(=O)c3cc(S(=O)(=O)N4CCC[C@H]4COc4cccnc4)ccc32)cc1 [1-[(4-methoxyphenyl)methyl]-5-{[(2S)-2-[(pyridin-3-yloxy)methyl]pyrrolidine-1-]sulfonyl}-2,3-dihydro-1H-indole-2,3-dione]
– | 8.33 | CCC(C)[C@H](NC(C)=O)C(=O)N[C@@H](CCC(=O)O)C(=O)N[C@H](C(=O)N[C@H](C=O)CC(=O)O)C(C)O (stereo partly drawn) [(4S)-4-{[(1S)-1-{[(2S)-1-carboxy-3-oxopropan-2-yl]carbamoyl}-2-hydroxypropyl]carbamoyl}-4-[(2S)-2-acetamido-3-methylpentanamido]butanoic acid] (Ac-[Ile(3ξ)]E[Thr(3ξ)]D-aldehyde)
